Measured values: patent publication US20230277483A1, “COMPOSITIONS AND METHODS TO TREAT INFLAMMATION” (University of Iowa Research Foundation, priority 2022, published 2023)

Tests used:
[1] = system: human monocyte-derived macrophages (MDM) using THP-1 cells; experiment: Proinflammatory cytokines after Pg-LPS challenge (qRT-PCR, ELISA); assay type: cell-based; details: at 0.1 μg after Pg-LPS challenge
Protocol: (§1) Sg metabolites modulate proinflammatory cytokines in human periodontal associated cells in vitro. Sg were cultured in a total of 40 ml DMEM for 24 hrs. After 200 μl of Sg suspension reached 0.2 at OD600 value in a 96-well plate, the Sg metabolites were collected by centrifugation at 3000 g for 10 min and then filtered through a 0.22 μm filter. No toxicity of Sg metabolites was detected using an MTT assay on primary human bone marrow mesenchymal stromal cells (BMSCs) and primary human gingival fibroblasts (HGF) (data no shown). The modulation of Sg metabolites on inflammatory cytokines was tested using human monocyte-derived macrophages (MDM) and HGF. The MDM were generated by inducing a human macrophage cell line (THP-1) using PMA at 10 ng/ml. The MDM at 2×10^6 cells/per well and HGF at 2×10^4 cells/per well were cultured in 24-well plates using DMEM with 10% FBS and 1% PS. The Sg metabolites at 1 and 5% v/v were added and incubated for 24 hrs before challenging with Pg-LPS at 100 ng/ml.
(§2) Human monocyte-derived macrophages (MDM) using THP-1 cells and HGF were cultured in a 24-well plate with DMEM and challenged with Pg-LPS at 100 ng/ml.
(§3) In addition, freshly isolated epidydimal white adipose tissues (eWAT) from mice on a HFD for 16 weeks were minced and cultured in 24-well plates and treated with HCA at 0.5 and 1.0 μM in DMEM/F-12 containing 10% cosmic calf serum (CCS) and 1% penicillin-streptomycin (basal growth media, BGM). […] These preliminary data are strong evidence that Sg metabolites have the potential to modulate host inflammatory responses and attenuate inflammation.
HCA promotes proliferation of health related bacteria and inhibits proliferation and attachment of periodontopathogenic bacteria. Promoting the growth of health-related commensal bacteria while inhibiting proliferation and attachment of pathogenic bacteria may be effective at preventing or treating periodontal inflammation. To determine if HCA has an effect on the growth properties of commensal bacteria and periodontopathogens, HCA at different concentrations was added to aerobic culture of S. mitis and S. oralis and anaerobic culture of T. denticola as described in our published manuscript (see detail in Shu et al, Journal of Periodontology, 2022). FIGS. 18A-C summarize the functions of HCA on the proliferation of specific commensal and pathogenic bacteria. […] Furthermore, the function of HCA on P. gingivalis attachment, a key parameter of adhesion and biofilm formation by periodontopathogenic bacteria, was investigated. […] Attachment measurements of P. gingivalis were performed based on our published studies (see detail in Shu et al, Journal of Periodontology, 2022). […] To test the biocompatibility and anti-inflammatory properties of HCA, human monocyte-derived macrophages (MDM) and gingival fibroblasts (HGF) were prepared as described in our previous studies. The cells were then treated with HCA from 0.1 to 50 μM. No toxicity was observed after treatment with different concentrations of HCA in either cell type using an MTT assay (FIGS. 19A and B, left column). The anti-inflammatory function of HCA on MDM and HGF after exposure to P. gingivalis lipopolysaccharide (PG-LPS) was investigated. […] HCA mitigates inflammation and affects the composition of microbiomes in vivo. Recent studies investigated whether HCA modulates periodontal inflammation using a mouse model. To induce periodontal inflammation, a total of 1 μl Pg-LPS at 10 μg/μl was directly injected twice a week into the interdental region between maxillary molars of C57BL/6J mice using a Hamilton1700 series syringe according to our previously published studies. 100 μl of HCA at 0.5 μM was administrated I.P. three time a week. […] It was also tested whether HCA affects the composition of the microbiome in vivo. For this purpose, high fat diet-induced obese (DIO) mice (The Jackson Laboratory) received I.P, administration of 100 μl of HCA at 0.2 and 0.5 μM three times a week for 3 weeks. […]

Human MDM = experiment: Anti-inflammatory miR expression after Pg-LPS challenge; assay type: cell-based; details: 24 hours after Pg-LPS challenge
Protocol: (§4) FIGS. 11A-11B. Sg metabolites upregulate anti-inflammatory miRs in human macrophages and HGF. A-B: Relative transcript changes of miR-200c, 146a, and 21 in HGF (A) and human MDM (B) treated with AICAR, MA, HCA, and HPLA 24 hours after Pg-LPS challenge; performed in duplicate.
Human MDM was cultured in a 24-well plate and treated with HCA at different concentrations and Pg-LPS at 100 ng/mi for 24 hrs. […] (All data are presented as means±SEM. *: p<0.05 vs untreated, ANOVA).

HGF = experiment: as above; assay type: cell-based, human; details: 24 hours after Pg-LPS challenge
Protocol: as §4

[2] = system: human gingival fibroblasts (HGF); experiment: Proinflammatory cytokines after Pg-LPS challenge (qRT-PCR, ELISA, antibody array); assay type: cell-based; details: for proinflammatory cytokines (transcripts of IL-1β, 6 and 8): at 0.1 μg after Pg-LPS challenge
Protocol: as §1
(§5) L-Norleucine as well as other metabolites modulate proinflammatory cytokines in macrophages and HGF. L-Norleucine was obtained commercially (Sigma) and dissolved in DMEM. Mouse macrophages and human HGF were cultured with DMEM supplemented with different concentrations of L-Norleucine and subsequently challenged with Pg-LPS at 100 ng/ml.
as §2, §3
HCA promotes proliferation of health related bacteria and inhibits proliferation and attachment of periodontopathogenic bacteria. Promoting the growth of health-related commensal bacteria while inhibiting proliferation and attachment of pathogenic bacteria may be effective at preventing or treating periodontal inflammation. To determine if HCA has an effect on the growth properties of commensal bacteria and periodontopathogens, HCA at different concentrations was added to aerobic culture of S. mitis and S. oralis and anaerobic culture of T. denticola as described in our published manuscript (see detail in Shu et al, Journal of Periodontology, 2022). FIGS. 18A-C summarize the functions of HCA on the proliferation of specific commensal and pathogenic bacteria. […] Furthermore, the function of HCA on P. gingivalis attachment, a key parameter of adhesion and biofilm formation by periodontopathogenic bacteria, was investigated. […] Attachment measurements of P. gingivalis were performed based on our published studies (see detail in Shu et al, Journal of Periodontology, 2022). […] To test the biocompatibility and anti-inflammatory properties of HCA, human monocyte-derived macrophages (MDM) and gingival fibroblasts (HGF) were prepared as described in our previous studies. The cells were then treated with HCA from 0.1 to 50 μM. No toxicity was observed after treatment with different concentrations of HCA in either cell type using an MTT assay (FIGS. 19A and B, left column). The anti-inflammatory function of HCA on MDM and HGF after exposure to P. gingivalis lipopolysaccharide (PG-LPS) was investigated. […] HCA mitigates inflammation and affects the composition of microbiomes in vivo. Recent studies investigated whether HCA modulates periodontal inflammation using a mouse model. To induce periodontal inflammation, a total of 1 μl Pg-LPS at 10 μg/μl was directly injected twice a week into the interdental region between maxillary molars of C57BL/6J mice using a Hamilton1700 series syringe according to our previously published studies. […]

Mouse macrophages = experiment: Proinflammatory cytokine transcripts after Pg-LPS challenge; assay type: cell-based
Protocol: as §5

[3] = L-Norleucine at 1 and 5 μM, Pg-LPS at 100 ng/ml

SMILES | proinflammatory cytokines (IL-6 transcript and IL-6 protein in supernatants) [1] | anti-inflammatory miRs (miR-200c, 146a, and 21) (Human MDM) | anti-inflammatory miRs (miR-200c, 146a, and 21) (HGF) | proinflammatory cytokines (transcripts of IL-1β, 6 and 8) [2] | transcripts of IL-1β, 6, and 8 [2, 3] | IL-6 and IL-8 in macrophages (Mouse macrophages; L-Norleucine) | transcripts of IL-1β, 6, and 8 (Mouse macrophages; [3])
NC(=O)c1ncn([C@@H]2O[C@H](CO)[C@@H](O)[C@H]2O)c1N [AICAR, acadesine] | modulate | upregulate | upregulate | modulate |  |  | 
O=C(O)C(O)Cc1ccc(O)cc1 (stereo not drawn) [HPLA, 4-hydroxyphenyllactic acid] | modulate | upregulate | upregulate | modulate |  |  | 
CCCC[C@H](N)C(=O)O [L-Norleucine] |  |  |  |  | effectively downregulated | effectively downregulated | effectively downregulated
O=C(O)CC(O)C(=O)O (stereo not drawn) [MA, malic acid] | modulate | upregulate | upregulate | modulate |  |  | 
